Measurements taken from patent US10072011B2, “Substituted bridged urea analogs as sirtuin modulators” (GlaxoSmithKline Intellectual Property (No.2) Limited, priority 2014, dated 2018).
Like-named read-outs stand apart in the source and are kept apart here.

Molecular target: T1, SIRT1 (Homo sapiens, UniProt Q96EB6)
T1 sequence (Q96EB6 1-747): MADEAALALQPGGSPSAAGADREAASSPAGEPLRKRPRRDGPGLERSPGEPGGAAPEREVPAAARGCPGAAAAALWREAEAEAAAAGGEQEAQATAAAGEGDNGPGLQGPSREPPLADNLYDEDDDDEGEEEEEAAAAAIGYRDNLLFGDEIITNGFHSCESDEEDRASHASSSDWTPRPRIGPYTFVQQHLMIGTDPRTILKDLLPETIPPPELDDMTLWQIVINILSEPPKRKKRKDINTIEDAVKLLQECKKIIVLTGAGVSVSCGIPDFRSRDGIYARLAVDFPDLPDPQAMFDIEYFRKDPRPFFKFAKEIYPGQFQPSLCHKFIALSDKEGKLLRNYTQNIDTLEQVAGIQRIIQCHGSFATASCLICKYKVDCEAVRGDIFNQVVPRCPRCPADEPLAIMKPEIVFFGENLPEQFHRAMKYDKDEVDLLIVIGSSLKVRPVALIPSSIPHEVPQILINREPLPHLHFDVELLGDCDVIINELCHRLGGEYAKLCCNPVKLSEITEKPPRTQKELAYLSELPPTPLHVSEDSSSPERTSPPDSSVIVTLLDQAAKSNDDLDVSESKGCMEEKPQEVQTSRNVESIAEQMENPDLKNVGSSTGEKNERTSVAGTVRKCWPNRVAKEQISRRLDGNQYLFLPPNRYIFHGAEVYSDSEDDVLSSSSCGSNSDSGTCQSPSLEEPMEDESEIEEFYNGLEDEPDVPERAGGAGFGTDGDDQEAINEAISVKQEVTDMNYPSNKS
Assay: Trp mass spectrometry assay of SIRT1 activation (Ac-R-H-K-K(Ac)-W-NH2 peptide)
Format: biochemical
Conditions: for Emax: 25 min, read-out: TRP MAX RESP (percent maximum fold activation)
Outline: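 Mass spectrometry read-out (OAADPR formed, or deacetylated Trp peptide) after a 25 min NAD-dependent deacetylation by E. coli-expressed His-SIRT1, stopped with formic acid.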

[1] = Trp peptide 0.5 μM, 120 μM βNAD+, 10 nM SIRT1, 25 min at 25° C., relative to control (100%)
[2] = Trp peptide 0.5 μM, 120 μM βNAD+, 10 nM SIRT1, 25 min at 25° C.

SMILES | Emax [1] [%] | TRP Activity (EC1.5, concentration of test compound that results in 150% activation of SIRT1) [2] | Emax [%]
O=C(NC(CCO)C(F)(F)F)c1ccc2c(n1)N(C(=O)Nc1ccccn1)[C@H]1CCN2C1 (single isomer, unassigned) [Example 18] | > 150 | A (EC1.5<1 μM) | –
O=C(NCCC(F)(F)F)c1ccc2c(n1)N(C(=O)Nc1ccc(F)cn1)[C@H]1CCN2C1 [Example 79, (4S)—N5-(5-fluoropyridin-2-yl)-N7-(3,3,3-trifluoropropyl)-3,4-dihydro-1,4-methanopyrido[2,3-b][1,4]diazepine-5,7(2H)-dicarboxamide] | > 150 | A (EC1.5<1 μM) | –
CC(C)(C#N)NC(=O)c1ccc2c(n1)N(C(=O)Nc1ccccn1)[C@H]1CCN2C1 [Example 104, (4S)—N7-(2-cyanopropan-2-yl)-N5-(pyridin-2-yl)-3,4-dihydro-1,4-methanopyrido[2,3-b][1,4]diazepine-5,7(2H)-dicarboxamide] | > 150 | B (EC1.5 1-25 μM) | –
O=C(NC1CC1(F)F)c1ccc2c(n1)N(C(=O)Nc1ccccn1)[C@H]1CCN2C1 (single isomer, unassigned) [Example 43] | > 150 | A (EC1.5<1 μM) | –
C[C@@H](NC(=O)c1ccc2c(n1)N(C(=O)Nc1cc3cn[nH]c3cn1)[C@H]1CCN2C1)C(F)(F)F [Example 170, (4S)—N5-(1H-pyrazolo[3,4-c]pyridin-5-yl)-N7-((R)-1,1,1-trifluoropropan-2-yl)-3,4-dihydro-1,4-methanopyrido[2,3-b][1,4]diazepine-5,7(2H)-dicarboxamide] | > 150 | A (EC1.5<1 μM) | –
C[C@@H](NC(=O)c1ccc2c(n1)N(C(=O)Nc1nccc(OC[C@@H](O)CO)n1)[C@H]1CCN2C1)C(F)(F)F [Example 154, (4S)—N5-(4-((S)-2,3-dihydroxypropoxy)pyrimidin-2-yl)-N7-((R)-1,1,1-trifluoropropan-2-yl)-3,4-dihydro-1,4-methanopyrido[2,3-b][1,4]diazepine-5,7(2H)-dicarboxamide] | > 150 | A (EC1.5<1 μM) | –
COc1ccnc(NC(=O)N2c3nc(C(=O)NCC(F)(F)F)ccc3N3CC[C@H]2C3)c1 [Example 136, (4S)—N5-(4-methoxypyridin-2-yl)-N7-(2,2,2-trifluoroethyl)-3,4-dihydro-1,4-methanopyrido[2,3-b][1,4]diazepine-5,7(2H)-dicarboxamide] | > 150 | A (EC1.5<1 μM) | –
O=C(NCc1cccc(F)c1)c1ccc2c(n1)N(C(=O)Nc1cc(OC[C@H](O)CO)ccn1)[C@H]1CCN2C1 [Example 187, (4S)—N5-(4-((R)-2,3-dihydroxypropoxy)pyridin-2-yl)-N7-(3-fluorobenzyl)-3,4-dihydro-1,4-methanopyrido[2,3-b][1,4]diazepine-5,7(2H)-dicarboxamide] | > 150 | A (EC1.5<1 μM) | –
O=C(NC1CC1)c1ccc2c(n1)N(C(=O)Nc1ccccn1)[C@H]1CCN2C1 [Example 2, (4S)—N7-cyclopropyl-N5-(pyridin-2-yl)-3,4-dihydro-1,4-methano pyrido[2,3-b][1,4]diazepine-5, 7(2H)-dicarboxamide] | > 150 | A (EC1.5<1 μM) | –
O=C(N[C@H](CO)C(F)(F)F)c1ccc2c(n1)N(C(=O)Nc1cc3c(cn1)OCCC3)[C@H]1CCN2C1 [Example 159] | > 150 | A (EC1.5<1 μM) | –
Cn1ccc(=O)c(NC(=O)N2c3nc(C(=O)NCC(F)(F)F)ccc3N3CC[C@H]2C3)c1 [Example 185, (4S)—N5-(1-methyl-4-oxo-1,4-dihydropyridin-3-yl)-N7-(2,2,2-trifluoroethyl)-3,4-dihydro-1,4-methanopyrido[2,3-b][1,4]diazepine-5,7(2H)-dicarboxamide] | – | A (EC1.5<1 μM) | > 150
O=C(Nc1ccc(Cl)cn1)N1c2nc(S(=O)(=O)NCC(F)(F)F)ccc2N2CC[C@H]1C2 [Example 277, (4S)—N-(5-chloropyridin-2-yl)-7-(N-(2,2,2-trifluoroethyl)sulfamoyl)-3,4-dihydro-1,4-methanopyrido[2,3-b][1,4]diazepine-5(2H)-carboxamide] | – | C (EC1.5>25 μM) | < 150
Cc1nc(NC(=O)N2c3nc(C(=O)NC4CC4)ccc3N3CC[C@H]2C3)ccc1F [Example 205, (4S)—N7-cyclopropyl-N5-(5-fluoro-6-methylpyridin-2-yl)-3,4-dihydro-1,4-methanopyrido[2,3-b][1,4]diazepine-5,7(2H)-dicarboxamide] | > 150 | B (EC1.5 1-25 μM) | –

More lines, main results first:

Emax [1] [%] | TRP Activity (EC1.5, concentration of test compound that results in 150% activation of SIRT1) [2] | SMILES | Emax [%]
< 150 | A (EC1.5<1 μM) | C[C@@H](NC(=O)c1ccc2c(n1)N(C(=O)Nc1cc(C(=O)NC3CC3)ccn1)[C@H]1CCN2C1)C(F)(F)F [Example 305, (4S)—N5-(4-(cyclopropylcarbamoyl)pyridin-2-yl)-N7-((R)-1,1,1-trifluoropropan-2-yl)-3,4-dihydro-1,4-methanopyrido[2,3-b][1,4]diazepine-5,7(2H)-dicarboxamide] | –
< 150 | B (EC1.5 1-25 μM) | COc1cc(NC(=O)N2c3nc(C(=O)NC4CC4(F)F)ccc3N3CC[C@H]2C3)ncn1 (single isomer, unassigned) [Example 298] | –
> 150 | A (EC1.5<1 μM) | Cc1ccc2c(NC(=O)N3c4nc(C(=O)N[C@H](C)C(F)(F)F)cc(C)c4N4CC[C@H]3C4)n[nH]c2n1 [Example 289, (4S)-9-methyl-N5-(6-methyl-1H-pyrazolo[3,4-b]pyridin-3-yl)-N7-((R)-1,1,1-trifluoropropan-2-yl)-3,4-dihydro-1,4-methanopyrido[2,3-b][1,4]diazepine-5,7(2H)-dicarboxamide] | –
> 150 | A (EC1.5<1 μM) | O=C(NC1CC(F)(F)C1)c1ccc2c(n1)N(C(=O)Nc1ccccn1)[C@H]1CCN2C1 [Example 246, (4S)—N7-(3,3-difluorocyclobutyl)-N5-(pyridin-2-yl)-3,4-dihydro-1,4-methanopyrido[2,3-b][1,4]diazepine-5,7(2H)-dicarboxamide] | –
> 150 | B (EC1.5 1-25 μM) | C[C@H](O)CNC(=O)c1ccc2c(n1)N(C(=O)Nc1ccccn1)[C@H]1CCN2C1 [Example 211, (4S)—N7-((S)-2-hydroxypropyl)-N5-(pyridin-2-yl)-3,4-dihydro-1,4-methanopyrido[2,3-b][1,4]diazepine-5,7(2H)-dicarboxamide] | –
> 150 | A (EC1.5<1 μM) | O=C(NC1CC1(F)F)c1ccc2c(n1)N(C(=O)Nc1ccc(F)cn1)[C@H]1CCN2C1 (single isomer, unassigned) [Example 242] | –
> 150 | B (EC1.5 1-25 μM) | O=C(NCc1nnn[nH]1)c1ccc2c(n1)N(C(=O)Nc1cc(OC[C@H](O)CO)ccn1)[C@H]1CCN2C1 [Example 256, (4S)—N7-((1H-tetrazol-5-yl)methyl)-N5-(4-((R)-2,3-dihydroxypropoxy)pyridin-2-yl)-3,4-dihydro-1,4-methanopyrido[2,3-b][1,4]diazepine-5,7(2H)-dicarboxamide] | –
> 150 | B (EC1.5 1-25 μM) | O=C(O)c1ccnc(NC(=O)N2c3nc(C(=O)NCC(F)(F)F)ccc3N3CC[C@H]2C3)c1 [Example 267, 2-((4S)-7-((2,2,2-trifluoroethyl)carbamoyl)-2,3,4,5-tetrahydro-1,4-methanopyrido[2,3-b][1,4]diazepine-5-carboxamido)isonicotinic acid] | –
> 150 | B (EC1.5 1-25 μM) | Cc1cccnc1NC(=O)N1c2nc(C(=O)N[C@H](C)C(F)(F)F)ccc2N2CC[C@H]1C2 [Example 247, (4S)—N5-(3-methylpyridin-2-yl)-N7-((R)-1,1,1-trifluoropropan-2-yl)-3,4-dihydro-1,4-methanopyrido[2,3-b][1,4]diazepine-5,7(2H)-dicarboxamide] | –
